Experimental data: PubChem BioAssay (NCI)
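Grown in 96-well plates, cells were treated for 48 hours with each compound at five concentrations. Insufficient inhibition: endpoint recorded as highest concentration tested. TGI marks complete inhibition of growth.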

Assays:
Assay in all cases: NCI anticancer screen, dose series, 48 h
[1] = test system: SN12C renal
[2] = test system: MDA-MB-435
[3] = test system: HCT-116 colon
[4] = test system: UACC-257 melanoma
[5] = test system: A549 NSCLC
[6] = test system: PC-3 prostate
[7] = test system: HCC-2998 colon
[8] = test system: HT29 colon
[9] = test system: HCT-15 colon
[10] = test system: HL-60(TB) leukemia
[11] = test system: NCI-H460 lung
[12] = test system: 786-0 renal
[13] = test system: LOX IMVI melanoma
[14] = test system: HOP-62 NSCLC
[15] = test system: BT-549 breast
[16] = test system: SR leukemia
[17] = test system: U251 CNS
[18] = test system: EKVX NSCLC

| Compound | TGI [1] | TGI [2] | TGI [3] | TGI [4] | TGI [5] | TGI [6] | TGI [7] | TGI [8] | TGI [9] | TGI [10] | TGI [11] | TGI [12] | TGI [13] | TGI [14] | TGI [15] | TGI [16] | TGI [17] | TGI [18] |
| --- | --- | --- | --- | --- | --- | --- | --- | --- | --- | --- | --- | --- | --- | --- | --- | --- | --- | --- |
| CCCCCCc1cc2cc(-c3cn4ccsc4n3)c(=O)oc2cc1O | > 100 µM | > 27.5 µM | > 100 µM | > 100 µM | > 100 µM | > 100 µM | > 100 µM | > 100 µM | > 100 µM | > 100 µM | > 100 µM | > 100 µM | > 100 µM | > 100 µM | > 100 µM | > 100 µM | > 100 µM | > 100 µM |
| CCOC(=O)/C(C#N)=C/c1coc2cc(C)cc(C)c2c1=O | > 100 µM | > 100 µM | > 100 µM | > 100 µM | > 100 µM | > 100 µM | > 100 µM | > 100 µM | > 100 µM | > 100 µM | > 100 µM | > 100 µM | > 100 µM | > 100 µM | > 100 µM | > 100 µM | > 100 µM | > 100 µM |
| CC(N)/C(N)=N/O (stereo unspecified) | > 100 µM | > 100 µM | > 100 µM | > 100 µM | > 100 µM | > 100 µM | > 100 µM | > 100 µM | > 100 µM | > 100 µM | > 100 µM | > 100 µM | > 100 µM | > 100 µM | > 100 µM | > 100 µM | > 100 µM | > 100 µM |
| COc1ccc(NC(=S)c2ccc(CN3CCCCC3)s2)cc1 | > 100 µM | 34.7 µM | 35.6 µM | 35.6 µM | 47.4 µM | 62.2 µM | 32.3 µM | 18.3 µM | 26.9 µM | 31.9 µM | 37.4 µM | 36.7 µM | 33.3 µM | 52.7 µM | 44 µM | 51.8 µM | 34.8 µM | 41.3 µM |
| O=C1C(Br)=C(Br)C(=O)c2ccc(=O)ccc21 | 33.7 µM | 33.3 µM | 39.1 µM | 58.3 µM | > 100 µM | > 100 µM | > 100 µM | > 75 µM | 38.7 µM | 13.7 µM | 67.6 µM | 32.7 µM | 41.2 µM | > 79.2 µM | 44.6 µM | 45 µM | 61.4 µM | > 90.9 µM |
| O=c1c(F)cn(Cc2c(Cl)cccc2Cl)c(=O)n1Cc1c(Cl)cccc1Cl | > 31.6 µM | > 31.6 µM | > 31.6 µM | > 31.6 µM | > 31.6 µM | > 31.6 µM | > 31.6 µM | > 31.6 µM | > 31.6 µM | > 31.6 µM | > 31.6 µM | > 31.6 µM | > 31.6 µM | > 31.6 µM | > 31.6 µM | > 31.6 µM | > 31.6 µM | > 31.6 µM |
| CC(C)(CN1CCCCC1)C(/C=C/c1ccc(Cl)cc1)=N\NC(=O)N/N=C(/C=C/c1ccc(Cl)cc1)C(C)(C)CN1CCCCC1 | 14.6 µM | 13.5 µM | 12.5 µM | 17.1 µM | > 57 µM | 19.7 µM | 16.3 µM | 12.2 µM | 7.99 µM | > 19.9 µM | 10.2 µM | 11.1 µM | 5.97 µM | 14.2 µM | 13.2 µM | 8.52 µM | 12.6 µM | 18.8 µM |
| Cc1ccc(S(=O)(=O)N2C3C=CC(C3)[C@@H]2C(Cl)(Cl)Cl)cc1 (stereo partly specified) | 44.2 µM | > 88.4 µM | 24.7 µM | 60.5 µM | > 100 µM | > 70.3 µM | 48.7 µM | 31.8 µM | 62.6 µM | > 47 µM | 35.5 µM | 49.5 µM | 33.2 µM | 41.5 µM | 32.4 µM | 43.2 µM | 40.1 µM | 55 µM |
| O=C1OC(c2ccccc2)=N/C1=C\c1ccc([N+](=O)[O-])cc1 | > 100 µM | > 100 µM | > 100 µM | > 100 µM | > 100 µM | > 100 µM | > 100 µM | > 100 µM | > 100 µM | > 100 µM | > 100 µM | > 100 µM | > 100 µM | > 100 µM | 67 µM | 79.6 µM | > 100 µM | > 100 µM |
| O=C1c2cccc3cc([N+](=O)[O-])cc(c23)C(=O)N1Nc1ccc([N+](=O)[O-])cc1[N+](=O)[O-] | > 73.5 µM | > 46.4 µM | 34.3 µM | 24.1 µM | > 31.6 µM | 72.7 µM | 29.2 µM | 24.2 µM | 27.4 µM | 27.5 µM | 36.2 µM | 35.7 µM | 19.4 µM | 50.5 µM | > 31.6 µM | 11.6 µM | 29.3 µM | > 46.4 µM |
| COc1ccc(C(C)NNC(=O)c2ccncc2)cc1OC (stereo unspecified) | > 100 µM | > 100 µM | > 100 µM | > 100 µM | > 100 µM | > 100 µM | > 100 µM | > 100 µM | > 100 µM | > 100 µM | > 100 µM | > 100 µM | > 100 µM | > 100 µM | > 100 µM | > 100 µM | > 100 µM | > 100 µM |
| N#C/C(N)=C(\C#N)NC=NCCO | > 100 µM | > 100 µM | > 100 µM | > 100 µM | > 100 µM | > 100 µM | > 100 µM | > 100 µM | > 100 µM | > 100 µM | > 100 µM | > 100 µM | > 100 µM | > 100 µM | > 100 µM | > 100 µM | > 100 µM | > 100 µM |
| O=C1NC2(CCN(CCc3ccccc3)CC2)Oc2ccccc21 | > 100 µM | > 100 µM | > 100 µM | > 100 µM | > 100 µM | > 100 µM | > 100 µM | > 100 µM | > 100 µM | > 100 µM | > 100 µM | > 100 µM | > 100 µM | > 100 µM | > 100 µM | > 100 µM | > 100 µM | > 100 µM |
| N=c1oc2ccccc2cc1C(=O)NC12CC3CC(CC(C3)C1)C2 | > 100 µM | > 83.6 µM | 71.1 µM | 70.9 µM | 73.1 µM | > 68.9 µM | 28.7 µM | > 100 µM | 67.5 µM | 30.7 µM | 31.4 µM | 9.92 µM | > 59.8 µM | > 83.7 µM | 50.6 µM | 11.4 µM | 43.8 µM | > 82.8 µM |
| CC1=C/C(=N\NC(N)=S)C(C(O)(C(F)(F)F)C(F)(F)F)C(C)(C)C1 (stereo unspecified) | > 10 µM | > 10 µM | > 10 µM | > 10 µM | > 10 µM | > 10 µM | > 10 µM | > 10 µM | > 10 µM | > 10 µM | > 10 µM | > 10 µM | > 10 µM | > 10 µM | > 10 µM | > 10 µM | > 10 µM | > 10 µM |
| CCOC(=O)CCCSCCCC(=O)CCCSCCCC(=O)OCC | > 100 µM | > 100 µM | > 100 µM | > 100 µM | > 100 µM | > 100 µM | > 100 µM | > 100 µM | > 100 µM | > 100 µM | > 100 µM | > 100 µM | > 100 µM | > 100 µM | > 100 µM | > 100 µM | > 100 µM | > 100 µM |
| O=C(O)C1C2c3ccccc3C(c3ccccc32)C1C(=O)NCC1CC1 (stereo unspecified) | > 100 µM | > 100 µM | > 100 µM | 70.5 µM | > 100 µM | > 100 µM | 55.1 µM | > 100 µM | > 100 µM | 77.2 µM | > 100 µM | > 100 µM | > 100 µM | > 100 µM | > 100 µM | > 100 µM | > 100 µM | > 100 µM |
| O=C1SC(SCc2ccccc2)=NC12CC2c1ccccc1 (stereo unspecified) | 44.3 µM | 59.3 µM | 31.4 µM | 38.5 µM | 81.8 µM | > 66.8 µM | 28.8 µM | 54 µM | 51.4 µM | 21.5 µM | 41.4 µM | 39.2 µM | 38 µM | > 82.8 µM | 52.8 µM | 52.5 µM | 39 µM | 44 µM |
| C[C@]12[C@@H]3CC[C@H]1[C@@H](O)C(=O)N2CC3 | > 100 µM | > 100 µM | > 100 µM | > 100 µM | > 100 µM | > 100 µM | > 100 µM | > 100 µM | > 100 µM | > 100 µM | > 100 µM | > 100 µM | > 100 µM | > 100 µM | > 100 µM | > 100 µM | > 100 µM | > 100 µM |
| COc1ccc(S(=O)(=O)n2c3c(c4ccccc42)[C@@H]2[C@@H](CCCN2C(=O)CS(=O)c2ccc(C)cc2)[C@H](Cl)C3)cc1 (stereo partly specified) | > 100 µM | > 100 µM | > 100 µM | > 100 µM | > 100 µM | > 100 µM | > 100 µM | > 100 µM | > 100 µM | > 100 µM | > 100 µM | > 100 µM | > 100 µM | > 100 µM | > 100 µM | > 100 µM | > 100 µM | > 100 µM |
| COc1ccc(C2c3cc4c(cc3OC3(OC)COC(=O)C23)OCO4)c(OC)c1 (stereo unspecified) | > 100 µM | 5.47 µM | > 90.7 µM | > 100 µM | > 100 µM | > 100 µM | > 100 µM | 15.1 µM | > 100 µM | 9.31 µM | > 100 µM | > 61.3 µM | > 100 µM | > 100 µM | > 100 µM | > 100 µM | > 100 µM | > 73.1 µM |
| COC(=O)c1ccc(Cc2cc(Cc3ccc(C(=O)OC)cc3)cc(Cc3ccc(C(=O)OC)cc3)c2)cc1 | > 25 µM | > 25 µM | > 25 µM | > 25 µM | > 25 µM | > 25 µM | > 25 µM | > 25 µM | > 25 µM | > 25 µM | > 25 µM | > 25 µM | > 25 µM | > 25 µM | > 25 µM | > 25 µM | > 25 µM | > 25 µM |
